The conditions of series [1]: after application. The text has this: Cyclobenzaprine is a 5-HT2 receptor antagonist and its muscle relaxant effect is due to inhibition of serotonergic neurons.
The conditions of series [2]: taken orally; cited from earlier work.

The structures appear in SMILES notation.

The values below come from patent US6632843B1, “Treatment of bruxism” (priority 2000, dated 2003).

`CN(C)CCC=C1c2ccccc2C=Cc2ccccc21` [cyclobenzaprine, Cyclobenzaprine]: the “time to clinical improvement” value in series [1] is reported as “as early as the first 20 minutes”. Also, in series [2], the half life entry is recorded as “as long as one to three days” and the plasma protein binding entry was “highly bound to plasma proteins”.
